We go through 1 compound from PMC12457078, “Inhibition of soluble epoxide hydrolase in endotoxin induced pig lung injury” (Frontiers in Pharmacology, 2025).

The test system of one data set is lung injury. Put plainly: histological evaluation of lung biopsies (four graded scale 0-3). The class given is in vivo, pig. From the text:
After euthanasia, the chest was opened and two approximately 2 × 1 × 1 cm pieces of lung tissue was cut from the left lung 3 cm from the hilus. One piece was immediately put in formaldehyde solution for later routine preparation for histological evaluation in hematoxylin and eosin staining. A pathologist, blinded for treatment group, evaluated the severity of lung injury in specimens on a four graded scale: 0 = no lung injury, 1 = mild lung injury, 2 = moderate lung injury and 3 = severe lung injury.

Data set [1] in a line: liver microsomal assay (metabolic stability). The class given is in vitro ADME, pig. The method, then:
To further characterize the inhibitors with regard to suitability for administration in pigs, a microsomal assay was used to determine metabolic stability ([Ackley et al., 2004]) for a subset of eight inhibitors chosen for their potency and availability. Microsomal preparations from pig liver were purchased from XenoTech (Kansas City, KS, US). Microsomes, buffer and NADPH generating system were combined, and then the inhibitor was added. The reaction was stopped after 35 min with ice cold acetonitrile containing internal standard (12-[[(cyclohexylamino)carbonyl]amino]-dodecanoic acid). The amount left of parent inhibitor was determined with LC-MS/MS.
On the technique in general: Liver microsomes are a subcellular fraction often used to study metabolism.

“And” between values parts separate entries of the source, which are not always exact repeats. Equal entries are not always repeated. “Also recorded” adds a separate entry of the source.

As to `CCOCCOCCOCCCCCNC(=O)NC12CC3CC(CC(C3)C1)C2` [Compound 950], the lungskada with lung injury (histology score, per case, listed as sEH-i 950) is 3 and 2. Also, the Lung injury result in the data set with lung injury (histology, grade in words, per case, listed as sEH-i 950) was “Severe; also recorded: Moderate”. In the data set on lung injury (scale 0-3, AEPU group), the Histological injury score is recorded as 2.7 (2–3). Also, in data set [1], the “metabolic stability” value is on record as “low”.
